In ChEMBL document CHEMBL3864167, “Structure-Activity Relationship, Drug Metabolism and Pharmacokinetics Properties Optimization, and in Vivo Studies of New Brain Penetrant Triple T-Type Calcium Channel Blockers” (J Med Chem, 2016):
Converted amounts (≈) assume the structure as drawn.

How the values were obtained:
[1] = molecular target: Voltage-dependent T-type calcium channel subunit alpha-1I (Homo sapiens, UniProt Q9P0X4); assay: Channel blocking activity at recombinant human CaV 3.3 channel expressed in HEK293 cells assessed as inhibition of Ca2+ flux preincubated for 3 mins followed by CaCl2 addition by fluo-4 dye-based FLIPR assay; format: cell-based
Sequence of Voltage-dependent T-type calcium channel subunit alpha-1I (Q9P0X4 whole entry): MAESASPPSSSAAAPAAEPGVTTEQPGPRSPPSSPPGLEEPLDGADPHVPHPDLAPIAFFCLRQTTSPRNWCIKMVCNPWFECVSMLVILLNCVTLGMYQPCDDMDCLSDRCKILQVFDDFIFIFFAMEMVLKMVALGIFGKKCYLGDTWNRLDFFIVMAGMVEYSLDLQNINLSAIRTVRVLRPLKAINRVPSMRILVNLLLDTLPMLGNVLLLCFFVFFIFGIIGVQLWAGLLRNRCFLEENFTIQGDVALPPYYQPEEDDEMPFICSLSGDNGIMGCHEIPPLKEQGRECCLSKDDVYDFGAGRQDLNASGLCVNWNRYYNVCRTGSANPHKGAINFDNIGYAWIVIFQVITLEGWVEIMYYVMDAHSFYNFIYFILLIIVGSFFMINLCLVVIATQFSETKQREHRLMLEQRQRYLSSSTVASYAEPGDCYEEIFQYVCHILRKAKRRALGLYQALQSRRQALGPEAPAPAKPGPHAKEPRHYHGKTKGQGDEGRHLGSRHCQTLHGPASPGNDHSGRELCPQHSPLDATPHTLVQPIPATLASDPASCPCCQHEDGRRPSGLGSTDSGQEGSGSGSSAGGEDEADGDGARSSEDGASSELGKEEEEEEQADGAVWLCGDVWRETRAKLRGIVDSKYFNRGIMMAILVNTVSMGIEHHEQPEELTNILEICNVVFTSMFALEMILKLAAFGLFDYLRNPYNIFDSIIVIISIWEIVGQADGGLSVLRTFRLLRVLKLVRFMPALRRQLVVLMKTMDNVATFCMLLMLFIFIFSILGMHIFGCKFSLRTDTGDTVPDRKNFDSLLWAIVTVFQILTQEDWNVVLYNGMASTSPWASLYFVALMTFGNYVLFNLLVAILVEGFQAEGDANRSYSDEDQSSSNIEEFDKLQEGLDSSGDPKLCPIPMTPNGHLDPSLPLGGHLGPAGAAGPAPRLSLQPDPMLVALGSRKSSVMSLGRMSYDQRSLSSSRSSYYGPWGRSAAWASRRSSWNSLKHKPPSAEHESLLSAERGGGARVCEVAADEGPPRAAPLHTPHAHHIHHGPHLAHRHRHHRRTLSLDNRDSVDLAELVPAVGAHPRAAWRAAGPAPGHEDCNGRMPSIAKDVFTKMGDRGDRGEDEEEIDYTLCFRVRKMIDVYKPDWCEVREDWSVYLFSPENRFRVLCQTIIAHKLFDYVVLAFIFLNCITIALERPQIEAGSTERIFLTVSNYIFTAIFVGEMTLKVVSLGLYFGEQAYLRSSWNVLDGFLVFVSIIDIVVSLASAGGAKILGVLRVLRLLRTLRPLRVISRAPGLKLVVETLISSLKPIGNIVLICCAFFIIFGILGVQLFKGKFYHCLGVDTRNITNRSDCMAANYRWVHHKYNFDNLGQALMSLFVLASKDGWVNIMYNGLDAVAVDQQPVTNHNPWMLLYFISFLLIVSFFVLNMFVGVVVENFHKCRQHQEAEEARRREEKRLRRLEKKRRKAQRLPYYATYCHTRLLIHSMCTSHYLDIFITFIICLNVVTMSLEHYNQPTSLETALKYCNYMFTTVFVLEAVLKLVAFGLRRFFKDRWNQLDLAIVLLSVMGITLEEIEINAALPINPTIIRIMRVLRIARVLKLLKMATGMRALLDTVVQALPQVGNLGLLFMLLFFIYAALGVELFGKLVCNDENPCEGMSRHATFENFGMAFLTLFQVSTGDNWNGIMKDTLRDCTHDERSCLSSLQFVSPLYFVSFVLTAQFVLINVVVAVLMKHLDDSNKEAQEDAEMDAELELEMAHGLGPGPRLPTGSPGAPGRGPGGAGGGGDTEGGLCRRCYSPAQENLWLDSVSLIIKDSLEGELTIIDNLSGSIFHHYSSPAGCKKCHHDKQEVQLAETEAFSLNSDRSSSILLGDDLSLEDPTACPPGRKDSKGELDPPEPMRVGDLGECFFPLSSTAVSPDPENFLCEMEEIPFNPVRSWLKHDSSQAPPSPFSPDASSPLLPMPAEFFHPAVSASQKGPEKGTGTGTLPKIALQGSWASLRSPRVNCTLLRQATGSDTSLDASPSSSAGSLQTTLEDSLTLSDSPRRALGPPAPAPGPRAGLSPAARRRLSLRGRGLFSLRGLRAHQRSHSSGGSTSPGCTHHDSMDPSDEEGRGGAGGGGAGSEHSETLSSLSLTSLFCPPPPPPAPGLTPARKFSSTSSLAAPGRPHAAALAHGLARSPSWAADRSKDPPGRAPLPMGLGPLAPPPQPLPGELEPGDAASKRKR

[2] = Lipophilicity, logD of compund at pH 7.4; format: physicochemical; conditions: buffer
[3] = molecular target: Voltage-dependent T-type calcium channel subunit alpha-1G (Homo sapiens, UniProt O43497); assay: Channel blocking activity at recombinant human CaV 3.1 channel expressed in HEK293 cells assessed as inhibition of Ca2+ flux preincubated for 3 mins followed by CaCl2 addition by fluo-4 dye-based FLIPR assay; format: cell-based
[4] = Solubility of the compound in fed state simulated intestinal fluid; format: ADME; conditions: fed state simulated intestinal fluid (FeSSIF)
[5] = Solubility of the compound in fast state simulated intestinal fluid; format: ADME; conditions: fasted state simulated intestinal fluid (FaSSIF)
[6] = Intrinsic clearance in human liver microsomes at 1 uM up to 15 mins in presence of NADPH by LC-MS-MS analysis; format: ADME; conditions: read-out: CLH
[7] = Solubility of the compound at pH 7; format: physicochemical; conditions: buffer
[8] = molecular target: Voltage-dependent T-type calcium channel subunit alpha-1H (Homo sapiens, UniProt O95180); assay: Channel blocking activity at recombinant human CaV 3.2 channel expressed in HEK293 cells assessed as inhibition of Ca2+ flux preincubated for 3 mins followed by CaCl2 addition by fluo-4 dye-based FLIPR assay; format: cell-based
Sequence of Voltage-dependent T-type calcium channel subunit alpha-1H (O95180 whole entry): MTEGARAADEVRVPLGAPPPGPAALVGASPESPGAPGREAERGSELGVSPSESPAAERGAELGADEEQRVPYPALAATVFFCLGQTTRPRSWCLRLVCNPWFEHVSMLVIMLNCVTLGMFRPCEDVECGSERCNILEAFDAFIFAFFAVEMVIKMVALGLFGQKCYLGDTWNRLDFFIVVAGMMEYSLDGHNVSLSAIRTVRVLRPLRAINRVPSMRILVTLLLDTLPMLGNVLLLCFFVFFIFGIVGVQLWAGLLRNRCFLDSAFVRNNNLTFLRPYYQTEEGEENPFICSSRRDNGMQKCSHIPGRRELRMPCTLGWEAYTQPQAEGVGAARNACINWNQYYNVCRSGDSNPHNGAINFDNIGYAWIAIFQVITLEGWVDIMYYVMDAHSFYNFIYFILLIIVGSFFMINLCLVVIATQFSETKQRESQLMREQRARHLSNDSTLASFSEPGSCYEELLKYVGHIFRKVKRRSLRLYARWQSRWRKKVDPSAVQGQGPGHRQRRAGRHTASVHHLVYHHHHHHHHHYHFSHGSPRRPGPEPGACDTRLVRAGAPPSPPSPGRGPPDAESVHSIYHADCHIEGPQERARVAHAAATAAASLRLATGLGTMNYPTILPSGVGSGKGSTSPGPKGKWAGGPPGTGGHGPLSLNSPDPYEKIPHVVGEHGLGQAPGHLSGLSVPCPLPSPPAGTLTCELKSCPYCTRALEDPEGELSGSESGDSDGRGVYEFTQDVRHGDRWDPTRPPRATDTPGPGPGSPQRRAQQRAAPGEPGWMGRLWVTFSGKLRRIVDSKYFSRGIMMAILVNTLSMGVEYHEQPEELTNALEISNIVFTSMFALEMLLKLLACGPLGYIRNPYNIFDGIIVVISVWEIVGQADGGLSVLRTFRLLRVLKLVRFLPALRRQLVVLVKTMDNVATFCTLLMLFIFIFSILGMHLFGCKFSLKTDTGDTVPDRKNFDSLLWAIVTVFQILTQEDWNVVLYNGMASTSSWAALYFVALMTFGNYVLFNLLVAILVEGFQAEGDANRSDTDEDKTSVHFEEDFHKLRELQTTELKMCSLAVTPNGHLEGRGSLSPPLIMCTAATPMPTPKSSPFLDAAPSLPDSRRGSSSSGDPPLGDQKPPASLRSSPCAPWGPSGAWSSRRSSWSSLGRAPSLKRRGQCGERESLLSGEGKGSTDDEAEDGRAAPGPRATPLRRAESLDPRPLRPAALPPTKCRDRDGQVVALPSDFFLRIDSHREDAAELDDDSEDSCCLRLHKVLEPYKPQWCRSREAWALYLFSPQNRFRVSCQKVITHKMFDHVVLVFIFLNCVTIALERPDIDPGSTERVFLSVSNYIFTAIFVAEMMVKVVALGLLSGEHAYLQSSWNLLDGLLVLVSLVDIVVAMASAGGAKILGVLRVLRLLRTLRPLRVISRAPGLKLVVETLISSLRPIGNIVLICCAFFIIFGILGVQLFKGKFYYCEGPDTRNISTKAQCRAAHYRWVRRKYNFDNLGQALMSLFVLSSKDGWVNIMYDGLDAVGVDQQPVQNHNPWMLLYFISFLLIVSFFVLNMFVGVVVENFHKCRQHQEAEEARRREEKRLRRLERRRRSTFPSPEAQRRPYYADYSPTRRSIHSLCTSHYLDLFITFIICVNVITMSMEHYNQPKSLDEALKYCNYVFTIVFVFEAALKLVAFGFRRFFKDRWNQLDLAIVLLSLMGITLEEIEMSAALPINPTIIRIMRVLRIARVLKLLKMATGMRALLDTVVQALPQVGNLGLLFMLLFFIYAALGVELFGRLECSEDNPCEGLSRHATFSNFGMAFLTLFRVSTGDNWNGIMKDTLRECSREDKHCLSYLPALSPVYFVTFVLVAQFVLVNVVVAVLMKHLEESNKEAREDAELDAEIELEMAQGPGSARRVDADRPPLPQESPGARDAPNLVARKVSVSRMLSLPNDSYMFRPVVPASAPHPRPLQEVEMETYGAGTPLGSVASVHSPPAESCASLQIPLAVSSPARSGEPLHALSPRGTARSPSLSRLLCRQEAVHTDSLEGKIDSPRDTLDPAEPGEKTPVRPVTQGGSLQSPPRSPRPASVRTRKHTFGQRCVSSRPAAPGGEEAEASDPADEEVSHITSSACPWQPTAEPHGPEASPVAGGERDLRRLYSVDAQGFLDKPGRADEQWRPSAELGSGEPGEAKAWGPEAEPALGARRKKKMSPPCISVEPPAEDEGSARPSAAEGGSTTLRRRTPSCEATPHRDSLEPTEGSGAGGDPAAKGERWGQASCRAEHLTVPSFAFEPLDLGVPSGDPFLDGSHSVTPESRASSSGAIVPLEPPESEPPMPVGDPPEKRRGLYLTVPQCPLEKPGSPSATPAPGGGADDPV

[9] = Intrinsic clearance in Wistar rat liver microsomes at 1 uM up to 15 mins in presence of NADPH by LC-MS-MS analysis; format: ADME; conditions: read-out: CLH
[10] = Fraction unbound in Wistar rat plasma at 100 mg/kg, po after 1 hr by LC-MS/MS analysis; format: ADME, organism-based
[11] = Drug uptake in Wistar rat cerebrospinal fluid at 100 mg/kg, po after 1 hr by LC-MS/MS analysis; format: ADME, organism-based; conditions: read-out: Drug uptake
[12] = Ratio of unbound brain concentration in Wistar rat to IC50 for recombinant human CaV 3.1 channel expressed in HEK293 cells; format: ADME, cell-based
[13] = Drug uptake in Wistar rat brain at 100 mg/kg, po after 1 hr by LC-MS/MS analysis; format: ADME, organism-based; conditions: read-out: Drug uptake
[14] = Ratio of unbound brain concentration in Wistar rat to IC50 for recombinant human CaV 3.2 channel expressed in HEK293 cells; format: ADME, cell-based
MDR1 [15] = assay: Apparent permeability from basolateral side to apical side in MDCK1 cells expressing MDR1; format: ADME, cell-based, Canis lupus familiaris; conditions: dog, MDCK-MDR1
[16] = AUC in Wistar rat at 100 mg/kg administered through oral gavage up to 24 hrs by LC-MS-MS analysis; format: ADME, organism-based; parameters: dose 100 mg/kg, time < 24 hr, route oral; conditions: in vivo
MDR1 [17] = assay: Apparent permeability from apical side to basolateral side in MDCK1 cells expressing MDR1; format: ADME, cell-based, Canis lupus familiaris; conditions: dog, MDCK-MDR1
[18] = Dissociation constant, pKa of compound; format: physicochemical
[19] = Unbound plasma concentration in Wistar rat at 100 mg/kg, po after 1 hr by LC-MS/MS analysis; format: ADME, organism-based; conditions: in vivo
[20] = Tmax in Wistar rat at 100 mg/kg administered through oral gavage by LC-MS-MS analysis; format: ADME, organism-based; conditions: in vivo
[21] = Fraction unbound in Wistar rat brain at 100 mg/kg, po after 1 hr by LC-MS/MS analysis; format: ADME, organism-based
[22] = Unbound brain concentration in Wistar rat at 100 mg/kg, po after 1 hr by LC-MS/MS analysis; format: ADME, organism-based; conditions: in vivo
[23] = Ratio of unbound brain concentration in Wistar rat to IC50 for recombinant human CaV 3.3 channel expressed in HEK293 cells; format: ADME, cell-based
[24] = Ratio of drug level in brain to plasma in Wistar rat at 100 mg/kg, po after 1 hr by LC-MS/MS analysis; format: ADME, organism-based
MDR1 [25] = assay: Efflux ratio for apparent permeability in MDCK1 cells expressing MDR1; format: ADME, cell-based, Canis lupus familiaris; conditions: dog, MDCK-MDR1
[26] = Cmax in Wistar rat at 100 mg/kg administered through oral gavage up to 24 hrs by LC-MS-MS analysis; format: ADME, organism-based; parameters: dose 100 mg/kg, route oral; conditions: in vivo
[27] = Drug uptake in Wistar rat plasma at 100 mg/kg, po after 1 hr by LC-MS/MS analysis; format: ADME, organism-based
[28] = Ratio of unbound brain concentration to unbound plasma concentration in Wistar rat at 100 mg/kg, po after 1 hr by LC-MS/MS analysis; format: ADME, organism-based
Rattus norvegicus = assay: Toxicity in WAG/Rij rat model of generalized nonconvulsive absence like epilepsy at 100 mg/kg, po administered as single dose; format: organism-based; conditions: in vivo
Cytochrome P450 3A4 = Cytochrome P450 3A4 (Homo sapiens, UniProt P08684); assay: Inhibition of CYP3A4 (unknown origin); format: ADME
Sequence of Cytochrome P450 3A4 (P08684 whole entry): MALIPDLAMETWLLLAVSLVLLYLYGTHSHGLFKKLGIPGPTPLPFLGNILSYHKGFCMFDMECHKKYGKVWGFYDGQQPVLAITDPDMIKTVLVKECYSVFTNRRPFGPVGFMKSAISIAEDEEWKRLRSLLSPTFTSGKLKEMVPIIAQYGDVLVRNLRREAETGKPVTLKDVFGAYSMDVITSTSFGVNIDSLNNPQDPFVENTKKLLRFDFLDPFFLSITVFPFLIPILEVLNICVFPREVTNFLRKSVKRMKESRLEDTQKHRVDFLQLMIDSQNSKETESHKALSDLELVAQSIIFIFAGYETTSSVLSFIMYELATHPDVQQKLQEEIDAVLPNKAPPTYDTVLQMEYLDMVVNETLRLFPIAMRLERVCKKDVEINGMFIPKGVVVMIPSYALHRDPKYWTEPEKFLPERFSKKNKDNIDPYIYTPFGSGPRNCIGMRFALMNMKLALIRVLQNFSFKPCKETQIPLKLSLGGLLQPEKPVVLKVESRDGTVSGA

[29] = Drug level in human liver microsomes treated with (+/-)-1-((3R,5S)-1-benzyl-3,5-dimethyl-2,3-dihydro-1H-benzo[e][1,4]diazepin-4(5H)-yl)-3-methoxypropan-1-one at 10 uM after 30 mins by LC-MS/MS analysis; format: ADME; conditions: 0.5 h
[30] = Drug metabolism in human liver microsomes assessed as (+/-)-1-((3R,5S)-3,5-dimethyl-2,3-dihydro-1H-benzo[e][1,4]diazepin-4(5H)-yl)-3-methoxypropan-1-one metabolite formation at 10 uM after 30 mins by LC-MS/MS analysis; format: ADME; conditions: 0.5 h
[31] = (§1) Antiepileptic activity in WAG/Rij rat model of generalized nonconvulsive absence like epilepsy implanted with telemetric transmitter assessed as reduction in number of seizures at 100 mg/kg, po administered as single dose at nocturnal active phase measured after 12 hrs by […] analysis relative to control; format: functional, organism-based; parameters: scale not given: the % may be the effect or the level left
[32] = as §1, with “cumulated duration” for “number”, “analysis” for “analysis relative to control”; format: functional, organism-based; parameters: scale not given: the % may be the effect or the level left
[33] = Antiepileptic activity in WAG/Rij rat model of generalized nonconvulsive absence like epilepsy implanted with telemetric transmitter assessed as reduction in number of seizures at 100 mg/kg, po administered as single dose at nocturnal active phase measured after 3 hrs by […] analysis; format: functional, organism-based; parameters: scale not given: the % may be the effect or the level left

| IC50 [1] [µM] | logD [2] | IC50 [3] [µM] | solubility [4] [mg/mL] | solubility [5] [mg/mL] | microsomal CLint at 1 µM [6] [µL/min/mg] | solubility [7] [mg/mL] | IC50 [8] [µM] | microsomal CLint at 1 µM [9] [µL/min/mg] | Papp B→A (MDR1 [15]) [nm/s] | Papp A→B (MDR1 [17]) [nm/s] | pKa [18] | efflux ratio (MDR1 [25]) | Structure (SMILES) | further results |
| --- | --- | --- | --- | --- | --- | --- | --- | --- | --- | --- | --- | --- | --- | --- |
| 0.008 | > 4.1 | 0.017 | 0.02 (≈ 50.1 µM) | 0.006 (≈ 15 µM) | > 1250 | < 0.001 | 0.035 | > 1250 | – | – | – | – | C[C@@H]1CN(Cc2ccccc2)c2ccccc2[C@H](C)N1C(=O)NCc1ccccc1 (racemic) | – |
| 0.025 | 3.1 | 0.142 | 0.318 (≈ 794 µM) | 0.089 (≈ 222 µM) | 276 | 0.042 (≈ 105 µM) | 0.236 | – | 558 | 166 | 6.2 | 3.4 | C[C@@H]1CN(Cc2ccccc2)c2cnccc2[C@H](C)N1C(=O)NCc1ccccc1 (racemic) | fraction unbound at 1 h [10]: 0.019; concentration at 1 h [11]: 0.494 µM; Ratio [12]: 0.25; concentration at 1 h [13]: 1.6 µM; Ratio [14]: 0.15; AUC at 24 h [16]: 21.8 µg·h/mL; Cp(f) [19]: 0.128 µM; Tmax [20]: 30 min; fraction unbound at 1 h [21]: 0.022; Drug uptake(free) [22]: 35 nM; Ratio [23]: 1.5; BPR [24]: 24%; Cmax [26]: 5.44 µg/mL; concentration at 1 h [27]: 6.78 µM; BPR [28]: 27% |
| 0.011 | – | 0.138 | – | – | – | – | 0.102 | – | – | – | – | – | C[C@@H]1CN(Cc2ccccc2)c2cnccc2[C@H](C)N1C(=O)NCc1ccccc1 [listing 1 of 2 here] | Activity (Rattus norvegicus): Non-Toxic; IC50 (Cytochrome P450 3A4): 0.023 to 0.031 µM |
| – | – | – | – | – | – | – | – | – | – | – | – | – | COCCC(=O)N1[C@H](C)CNc2ccccc2[C@@H]1C (racemic) | Drug metabolism [29]: Metabolite_Detected |
| 0.133 | 3.3 | 0.107 | – | – | 83 | 0.177 (≈ 437 µM) | 0.24 | 500 | 538 | 9 | 3.8 to 4.7 | 60 | C[C@@H]1CN(Cc2ccccc2)c2cncc(F)c2[C@H](C)N1C(=O)Nc1cccnc1 (racemic) | – |
| 0.025 | 4 | 0.076 | – | – | 94 | 0.009 (≈ 21.9 µM) | 0.055 | 885 | 545 | 106 | 6.4 | 5.1 | COc1ccc(CNC(=O)N2[C@H](C)CN(CCC(C)C)c3cnccc3[C@@H]2C)cc1 (racemic) | – |
| – | – | – | 0.195 (≈ 553 µM) | 0.058 (≈ 165 µM) | > 1250 | 0.027 (≈ 76.6 µM) | – | > 1250 | – | – | – | – | COCCC(=O)N1[C@H](C)CN(Cc2ccccc2)c2ccccc2[C@@H]1C (racemic) | Drug metabolism [30]: Metabolite_Detected |
| 0.251 | 3.2 | 0.613 | – | – | 30 | 0.309 (≈ 841 µM) | 0.604 | 496 | 560 | 4 | 4.4 to 6.3 | 140 | CC(C)CCN1C[C@@H](C)N(C(=O)Nc2cccnc2)[C@@H](C)c2ccncc21 (racemic) | – |
| – | – | – | – | – | – | – | – | – | – | – | – | – | C[C@@H]1CN(Cc2ccccc2)c2cnccc2[C@H](C)N1C(=O)NCc1ccccc1 [listing 2 of 2 here] | Activity [31]: 50%; Activity [32]: 50%; Activity [33]: 100% |
